Assay results: PubChem BioAssay AID248 (DTP/NCI, 2004)
Values joined by “and” are separate entries in the source; they are usually repeats but may differ in a detail not shown here. Identical values can stand only once. Toxic doses and inconclusive results are not listed.

System: L1210 leukemia ip in BDF1 mice, survival T/C
Assay: NCI In Vivo Anticancer Drug Screen. Data for tumor model L1210 Leukemia (intraperitoneal) in B6D2F1 (BDF1) mice
Conditions: endpoint: mean survival time, higher = longer survival
Outline: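 Transplantable tumor model; survival measured in treated vs vehicle control mice. Value = treated/control.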

NC(CSC(c1ccccc1)(c1ccccc1)c1ccccc1)C(=O)O (stereo not given)
T/C (dose: 1.0 mg/kg/injection, schedule: Q01DX Z (ip), vehicle: carboxymethylcellulose (CMC)): 97 % of control and 102 % of control | T/C (dose: 1.0 mg/kg/injection, schedule: Q01DX Z (ip), vehicle: other): 109 % of control | T/C (dose: 1.0 mg/kg/injection, schedule: Q01DX Z (ip), vehicle: saline): 109 % of control | T/C (dose: 1.95 mg/kg/injection, schedule: Q03HX006 (iv), vehicle: clinical formulation): 106 % of control | T/C (dose: 3.9 mg/kg/injection, schedule: Q03HX006 (iv), vehicle: clinical formulation): 101 % of control | T/C (dose: 4.0 mg/kg/injection, schedule: Q03HX024 (oral), vehicle: water): 107 % of control | T/C (dose: 4.1 mg/kg/injection, schedule: Q03HX024 (ip), vehicle: clinical formulation): 107 % of control | T/C (dose: 4.1 mg/kg/injection, schedule: Q03HX024 (ip), vehicle: saline): 114 % of control | T/C (dose: 4.1 mg/kg/injection, schedule: Q03HX024 (ip), vehicle: water): 111 % of control | T/C (dose: 4.4 mg/kg/injection, schedule: Q03HX024 (ip), vehicle: water): 106 % of control | T/C (dose: 5.0 mg/kg/injection, schedule: Q01DX Z (ip), vehicle: carboxymethylcellulose (CMC)): 108 % of control and 123 % of control | T/C (dose: 5.0 mg/kg/injection, schedule: Q01DX Z (ip), vehicle: other): 115 % of control | T/C (dose: 5.0 mg/kg/injection, schedule: Q01DX Z (ip), vehicle: saline): 117 % of control | T/C (dose: 5.4 mg/kg/injection, schedule: Q03HX024 (ip), vehicle: saline): 111 % of control | T/C (dose: 6.0 mg/kg/injection, schedule: Q03HX024 (oral), vehicle: water): 118 % of control | T/C (dose: 6.25 mg/kg/injection, schedule: Q01DX015 (oral), vehicle: saline): 108 % of control | T/C (dose: 6.25 mg/kg/injection, schedule: Q01DX015 (sc), vehicle: saline): 105 % of control | T/C (dose: 6.6 mg/kg/injection, schedule: Q03HX024 (ip), vehicle: water): 124 % of control | T/C (dose: 7.2 mg/kg/injection, schedule: Q03HX024 (ip), vehicle: clinical formulation): 124 % of control | T/C (dose: 7.81 mg/kg/injection, schedule: Q03HX006 (iv), vehicle: clinical formulation): 103 % of control | T/C (dose: 7.81 mg/kg/injection, schedule: Q03HX012 (ip), vehicle: clinical formulation): 108 % of control | T/C (dose: 7.81 mg/kg/injection, schedule: Q03HX012 (ip), vehicle: water): 121 % of control | T/C (dose: 8.75 mg/kg/injection, schedule: Q03HX008 (ip), vehicle: other): 113 % of control | T/C (dose: 9.0 mg/kg/injection, schedule: Q03HX024 (oral), vehicle: clinical formulation): 105 % of control | T/C (dose: 9.0 mg/kg/injection, schedule: Q03HX024 (oral), vehicle: saline): 105 % of control | T/C (dose: 9.0 mg/kg/injection, schedule: Q03HX024 (oral), vehicle: water): 115 % of control | T/C (dose: 10.0 mg/kg/injection, schedule: Q01DX Z (ip), vehicle: carboxymethylcellulose (CMC)): 119 % of control | T/C (dose: 12.5 mg/kg/injection, schedule: Q01DX009 (ip), vehicle: clinical formulation): 116 % of control | T/C (dose: 12.5 mg/kg/injection, schedule: Q01DX009 (ip), vehicle: other): 123 % of control | T/C (dose: 12.5 mg/kg/injection, schedule: Q01DX009 (ip), vehicle: water): 116 % of control | T/C (dose: 12.5 mg/kg/injection, schedule: Q01DX015 (ip), vehicle: saline): 151 % of control | T/C (dose: 12.5 mg/kg/injection, schedule: Q01DX015 (oral), vehicle: saline): 114 % of control | T/C (dose: 12.75 mg/kg/injection, schedule: Q03HX024 (ip), vehicle: water): 119 % of control | T/C (dose: 14.0 mg/kg/injection, schedule: Q03HX024 (oral), vehicle: clinical formulation): 122 % of control | T/C (dose: 15.62 mg/kg/injection, schedule: Q03HX006 (iv), vehicle: clinical formulation): 103 % of control | T/C (dose: 15.62 mg/kg/injection, schedule: Q03HX012 (ip), vehicle: water): 152 % of control | T/C (dose: 16.87 mg/kg/injection, schedule: Q03HX024 (ip), vehicle: other): 151 % of control | T/C (dose: 17.0 mg/kg/injection, schedule: Q01DX009 (ip), vehicle: other): 109 % of control | T/C (dose: 17.5 mg/kg/injection, schedule: Q01DX005 (ip), vehicle: other): 114 % of control | T/C (dose: 17.5 mg/kg/injection, schedule: Q01DX009 (ip), vehicle: other): 113 % of control | T/C (dose: 17.5 mg/kg/injection, schedule: Q## X006 (ip), vehicle: other): 116 % of control | T/C (dose: 22.5 mg/kg/injection, schedule: Q03HX024 (ip), vehicle: water): 92 % of control | T/C (dose: 25.0 mg/kg/injection, schedule: Q01DX009 (ip), vehicle: clinical formulation): 117 % of control | T/C (dose: 25.0 mg/kg/injection, schedule: Q01DX009 (ip), vehicle: other): 119 % of control | T/C (dose: 25.0 mg/kg/injection, schedule: Q01DX009 (ip), vehicle: water): 110 % of control | T/C (dose: 27.0 mg/kg/injection, schedule: Q03HX024 (oral), vehicle: clinical formulation): 152 % of control | T/C (dose: 31.25 mg/kg/injection, schedule: Q03HX006 (iv), vehicle: clinical formulation): 116 % of control | T/C (dose: 31.25 mg/kg/injection, schedule: Q03HX012 (ip), vehicle: clinical formulation): 118 % of control | T/C (dose: 31.25 mg/kg/injection, schedule: Q03HX012 (ip), vehicle: water): 118 % of control | T/C (dose: 35.0 mg/kg/injection, schedule: Q03HX008 (ip), vehicle: other): 122 % of control | T/C (dose: 35.0 mg/kg/injection, schedule: Q03HX024 (ip), vehicle: other): 107 % of control | T/C (dose: 35.0 mg/kg/injection, schedule: Q04DX003 (ip), vehicle: clinical formulation): 96 % of control | T/C (dose: 35.0 mg/kg/injection, schedule: Q04DX003 (ip), vehicle: other): 113 % of control | T/C (dose: 35.0 mg/kg/injection, schedule: Q## X006 (ip), vehicle: other): 124 % of control | T/C (dose: 35.5 mg/kg/injection, schedule: Q01DX009 (ip), vehicle: other): 107 % of control | T/C (dose: 47.0 mg/kg/injection, schedule: Q04DX003 (ip), vehicle: other): 119 % of control | T/C (dose: 48.0 mg/kg/injection, schedule: Q03HX024 (oral), vehicle: clinical formulation): 106 % of control | T/C (dose: 50.0 mg/kg/injection, schedule: Q01DX009 (oral), vehicle: other): 123 % of control | T/C (dose: 50.0 mg/kg/injection, schedule: Q01DX Z (ip), vehicle: carboxymethylcellulose (CMC)): 102 % of control | T/C (dose: 52.8 mg/kg/injection, schedule: Q03HX024 (ip), vehicle: clinical formulation): 105 % of control | T/C (dose: 52.8 mg/kg/injection, schedule: Q04DX003 (ip), vehicle: clinical formulation): 95 % of control and 105 % of control | T/C (dose: 70.0 mg/kg/injection, schedule: Q01DX001 (ip), vehicle: other): 121 % of control | T/C (dose: 70.0 mg/kg/injection, schedule: Q03HX008 (ip), vehicle: other): 101 % of control | T/C (dose: 70.0 mg/kg/injection, schedule: Q04DX003 (ip), vehicle: clinical formulation): 107 % of control | T/C (dose: 70.0 mg/kg/injection, schedule: Q## X006 (ip), vehicle: other): 121 % of control | T/C (dose: 78.0 mg/kg/injection, schedule: Q02DX005 (ip), vehicle: other): 152 % of control | T/C (dose: 78.0 mg/kg/injection, schedule: Q04DX003 (ip), vehicle: other): 114 % of control | T/C (dose: 78.0 mg/kg/injection, schedule: Q08DX002 (ip), vehicle: other): 110 % of control | T/C (dose: 80.0 mg/kg/injection, schedule: Q03HX024 (ip), vehicle: clinical formulation): 115 % of control | T/C (dose: 80.0 mg/kg/injection, schedule: Q04DX003 (ip), vehicle: clinical formulation): 94 % of control and 108 % of control | T/C (dose: 100.0 mg/kg/injection, schedule: Q01DX009 (ip), vehicle: saline with Tween-80): 108 % of control | T/C (dose: 100.0 mg/kg/injection, schedule: Q01DX009 (oral), vehicle: other): 118 % of control | T/C (dose: 100.0 mg/kg/injection, schedule: Q01DX Z (ip), vehicle: other): 115 % of control | T/C (dose: 100.0 mg/kg/injection, schedule: Q01DX Z (ip), vehicle: saline): 150 % of control | T/C (dose: 100.0 mg/kg/injection, schedule: Q02DX005 (oral), vehicle: other): 121 % of control | T/C (dose: 112.0 mg/kg/injection, schedule: Q03HX024 (oral), vehicle: clinical formulation): 96 % of control | T/C (dose: 112.0 mg/kg/injection, schedule: Q03HX024 (oral), vehicle: saline): 103 % of control | T/C (dose: 112.0 mg/kg/injection, schedule: Q04DX003 (ip), vehicle: clinical formulation): 122 % of control | T/C (dose: 125.0 mg/kg/injection, schedule: Q02DX009 (ip), vehicle: other): 97 % of control | T/C (dose: 130.0 mg/kg/injection, schedule: Q08DX002 (ip), vehicle: other): 124 % of control | T/C (dose: 140.0 mg/kg/injection, schedule: Q01DX001 (ip), vehicle: other): 118 % of control | T/C (dose: 150.0 mg/kg/injection, schedule: Q01DX Z (ip), vehicle: saline): 109 % of control | T/C (dose: 160.0 mg/kg/injection, schedule: Q03HX024 (ip), vehicle: saline): 110 % of control | T/C (dose: 240.0 mg/kg/injection, schedule: Q03HX024 (ip), vehicle: saline): 92 % of control | T/C (dose: 250.0 mg/kg/injection, schedule: Q02DX009 (ip), vehicle: other): 103 % of control | T/C (dose: 250.0 mg/kg/injection, schedule: Q02DX009 (oral), vehicle: other): 121 % of control | T/C (dose: 250.0 mg/kg/injection, schedule: Q04DX005 (oral), vehicle: other): 121 % of control | T/C (dose: 250.0 mg/kg/injection, schedule: Q08DX003 (oral), vehicle: other): 111 % of control | T/C (dose: 280.0 mg/kg/injection, schedule: Q01DX001 (ip), vehicle: other): 107 % of control | T/C (dose: 280.0 mg/kg/injection, schedule: Q04DX003 (ip), vehicle: saline): 107 % of control | T/C (dose: 400.0 mg/kg/injection, schedule: Q01DX009 (oral), vehicle: other): 120 % of control | T/C (dose: 500.0 mg/kg/injection, schedule: Q08DX003 (oral), vehicle: other): 124 % of control | T/C (dose: 800.0 mg/kg/injection, schedule: Q08DX002 (oral), vehicle: other): 113 % of control | T/C (dose: 1000.0 mg/kg/injection, schedule: Q02DX009 (oral), vehicle: other): 112 % of control | T/C (dose: 2000.0 mg/kg/injection, schedule: Q08DX003 (oral), vehicle: other): 151 % of control
